As usually defined, the AC50 is the midpoint of the concentration-response curve, whichever way the signal moves.

Our source for the AC50 values is PubChem BioAssay AID493118 (Broad Institute, 2011).

This test deals with Vibrio harveyi MM32, AI-2 induced luminescence, 5 h. Put plainly: inhibitors of AI-2-induced luminescence in V. harveyi MM32, dose response, mechanism study for V. harveyi quorum sensing inhibitors, strain MM32, dry powder (AID 493118).
In the case of `Cn1cnc(S(=O)(=O)Nc2ccc(OC(F)(F)F)cc2)c1`, the AC50 was 1.95 µM.
On to `O=C1C=C/C(=C/Br)O1`, for which the concentration at half-maximal activity (AC50) was 4.33 µM.
On to `CCc1ccc(S(=O)(=O)Nc2ccc(Br)cn2)cc1`, for which the AC50 is 1.4 µM.
As to `C=Cn1c(C(=O)O)ccc1-c1ccc(CC)cc1`, the AC50 was 2.14 µM.
As for `Cc1cccc(NS(=O)(=O)c2ccc(Oc3ccccc3)cc2)n1`, the figure is 0.898 µM; as for `COc1cc(NC(=O)CN2C(=O)NC(c3ccccc3)(c3ccccc3)C2=O)cc(OC)c1`, 0.615 µM.
